Experimental findings from PubChem BioAssay (NCI) are described below.

SMILES strings stand for the structures. Values joined by “and” are separate entries in the source; they are usually repeats but may differ in a detail not shown here. Equal values may be shown once.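 Interpolation was linear, between the two tested concentrations surrounding the appropriate level; five concentrations were tested over 48 hours in 96-well plates. GI50 marks 50% less growth. TGI is the concentration that stops growth completely.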

Among the test systems are ACHN renal; CCRF-CEM leukemia; HCT-15 colon; MALME-3M melanoma; MOLT-4 leukemia; NCI-H226 lung; SK-MEL-5 melanoma; SNB-75 CNS; U251 CNS; UO-31 renal.
Assay in all cases: growth of human tumour cells (NCI), 48 h

Consider `CC(=O)[CH-]C(=O)c1ccccc1.CC(=O)[CH-]C(=O)c1ccccc1.CC(C)CCCC(C)[C@H]1CCC2[C@@H]3CCC4C[C@@H]([O-])CC[C@]4(C)C3CC[C@@]21C.CC(C)CCCC(C)[C@H]1CCC2[C@@H]3CCC4C[C@@H]([O-])CC[C@]4(C)C3CC[C@@]21C.Cl.[Ti+4]` (stereo not given in full), for which the GI50 in the test on ACHN renal is over 25 µM; in the test on CCRF-CEM leukemia it was over 25 µM; in the test with HCT-15 colon, over 25 µM; in the test with MALME-3M melanoma, 8.93 µM; in the test with MOLT-4 leukemia, over 25 µM; in the test with NCI-H226 lung it was over 25 µM. For the same compound, the GI50 in the test with SK-MEL-5 melanoma, in the test with SNB-75 CNS, with U251 CNS and in the test on UO-31 renal was over 25 µM each time. Also, the TGI in the test on ACHN renal, in the test with CCRF-CEM leukemia, with HCT-15 colon, in the test with MALME-3M melanoma, with MOLT-4 leukemia and in the test on NCI-H226 lung was over 25 µM each time. Besides, the TGI with SK-MEL-5 melanoma, with SNB-75 CNS, with U251 CNS and with UO-31 renal was over 25 µM throughout.

As for `CCCCCCCCOC(=O)c1cc(O)c(O)c(O)c1`, the GI50 was 1.6 µM with ACHN renal; 0.314 µM with CCRF-CEM leukemia; 1.57 µM with HCT-15 colon; 1.74 µM in the test on MALME-3M melanoma; 0.437 µM in the test on MOLT-4 leukemia; 8.51 µM in the test on NCI-H226 lung. The GI50 in the test on SK-MEL-5 melanoma is 3.26 µM; with SNB-75 CNS, 2.71 µM; in the test with U251 CNS, 3.02 µM; in the test on UO-31 renal, 0.279 µM. Further, the TGI in the test with ACHN renal is 13.8 µM; with CCRF-CEM leukemia, over 42.8 µM; with HCT-15 colon, 18.3 µM; in the test on MALME-3M melanoma it was 9.25 µM; in the test with MOLT-4 leukemia, 16.5 µM; in the test on NCI-H226 lung it was 29 µM. The TGI is 11.6 µM in the test on SK-MEL-5 melanoma, 37.6 µM in the test on SNB-75 CNS, 28.6 µM in the test on U251 CNS and 2.9 µM in the test on UO-31 renal.

With `Nc1nc(N)c2ncn(Cc3c(Cl)cccc3Cl)c2n1`, the TGI with ACHN renal, in the test with CCRF-CEM leukemia, with HCT-15 colon, with MALME-3M melanoma, with MOLT-4 leukemia and with NCI-H226 lung was over 100 µM each time. Also, the TGI with SK-MEL-5 melanoma is over 100 µM; in the test with SNB-75 CNS, 48.7 µM; in the test with U251 CNS it was over 100 µM; in the test with UO-31 renal, over 100 µM.

In the case of `Cc1cc2cc(Oc3ccnc(Nc4cccc(CS(=O)(=O)NCCN(C)C)c4)n3)ccc2[nH]1`, the GI50 in the test with ACHN renal was 7.22 µM; in the test with CCRF-CEM leukemia, 3.36 µM; in the test on HCT-15 colon it was 11 µM; with MALME-3M melanoma, 2.96 µM; in the test on MOLT-4 leukemia, 2.1 µM; in the test with NCI-H226 lung, 7.25 µM. The GI50 in the test on SK-MEL-5 melanoma was 1.86 µM; with SNB-75 CNS, 1.31 µM; with U251 CNS, 5.33 µM; with UO-31 renal it was 3.14 µM. Further, the TGI in the test with ACHN renal worked out at 20.3 µM; with CCRF-CEM leukemia it was 11.3 µM; in the test on HCT-15 colon, 24.2 µM; with MALME-3M melanoma it was 10.5 µM; in the test on MOLT-4 leukemia, 7.06 µM; in the test on NCI-H226 lung, 22.1 µM. For the same compound, the TGI was 3.5 µM in the test on SK-MEL-5 melanoma, 4.89 µM in the test with SNB-75 CNS, 18.4 µM in the test with U251 CNS and 14.9 µM with UO-31 renal.

Consider `N#C/C(=C/c1cccs1)c1cccs1`, for which the GI50 in the test on ACHN renal, in the test with CCRF-CEM leukemia, in the test with HCT-15 colon, with MALME-3M melanoma, in the test with MOLT-4 leukemia and in the test with NCI-H226 lung was over 100 µM each time. Besides, the GI50 in the test with SK-MEL-5 melanoma, in the test on SNB-75 CNS, with U251 CNS and with UO-31 renal was over 100 µM throughout. The TGI in the test with ACHN renal, in the test with CCRF-CEM leukemia, in the test with HCT-15 colon, with MALME-3M melanoma, with MOLT-4 leukemia and in the test on NCI-H226 lung was over 100 µM throughout. The TGI in the test with SK-MEL-5 melanoma, in the test with SNB-75 CNS, in the test on U251 CNS and in the test with UO-31 renal was over 100 µM throughout.

On to `COc1cccc(C(=O)O)c1Cc1cccc2ccccc12`, for which the TGI with ACHN renal, with CCRF-CEM leukemia, with HCT-15 colon, in the test on MALME-3M melanoma, with MOLT-4 leukemia and in the test with NCI-H226 lung was over 100 µM throughout. The TGI in the test on SK-MEL-5 melanoma, in the test with SNB-75 CNS, in the test on U251 CNS and with UO-31 renal was over 100 µM each time.

Consider `CC(C)NCCCNC1=C(Cl)C(=O)c2ccccc2C1=O`, for which the GI50 is 12.6 µM in the test on ACHN renal; 3.56 µM with CCRF-CEM leukemia; 1.95 µM in the test on HCT-15 colon; 1.97 µM in the test on MALME-3M melanoma; 2.05 µM in the test on MOLT-4 leukemia; 12.8 µM in the test on NCI-H226 lung. The GI50 was 1.54 µM with SK-MEL-5 melanoma, 10.3 µM in the test with SNB-75 CNS, 2.7 µM with U251 CNS and 14.4 µM with UO-31 renal. Also, the TGI is 25.8 µM with ACHN renal; 17.6 µM in the test on CCRF-CEM leukemia; 3.96 µM in the test with HCT-15 colon; 3.69 µM in the test with MALME-3M melanoma; 4.61 µM in the test on MOLT-4 leukemia; 27.6 µM in the test on NCI-H226 lung. The TGI in the test with SK-MEL-5 melanoma is 2.88 µM; with SNB-75 CNS, 22.4 µM; in the test on U251 CNS it was 6.82 µM; with UO-31 renal it was 29.2 µM.

Turning to `O=C(O)C1(C(=O)O)CCN(S(=O)(=O)c2ccccc2)CC1`, the TGI in the test with ACHN renal, with CCRF-CEM leukemia, in the test on HCT-15 colon, with MALME-3M melanoma, in the test with MOLT-4 leukemia and in the test with NCI-H226 lung was over 100 µM each time. Also, the TGI in the test on SK-MEL-5 melanoma, with SNB-75 CNS, with U251 CNS and with UO-31 renal was over 100 µM in each case.

Consider `CCCCCCCCCCCCCCCC[N+](C)(C)C`, for which the GI50 was 0.332 µM and 1.44 µM with ACHN renal; 0.656 µM in the test on CCRF-CEM leukemia; 0.383 µM and 1.88 µM with HCT-15 colon; 1.8 µM in the test on MALME-3M melanoma; 0.157 µM and 1.17 µM in the test on MOLT-4 leukemia; 1.13 µM in the test on NCI-H226 lung. The GI50 in the test with SK-MEL-5 melanoma was 1.56 µM; with SNB-75 CNS it was 0.142 µM and 1.36 µM; in the test with U251 CNS it was 0.139 µM and 0.567 µM; in the test with UO-31 renal, 0.552 µM and 2.18 µM. Besides, the TGI with ACHN renal was 1.61 µM and 4.03 µM; in the test with CCRF-CEM leukemia, 2.44 µM; in the test with HCT-15 colon, 1.85 µM and 10.1 µM; in the test on MALME-3M melanoma it was 5.08 µM; in the test on MOLT-4 leukemia, 0.346 µM and 2.8 µM; in the test with NCI-H226 lung it was 3.07 µM. Moreover, the TGI in the test with SK-MEL-5 melanoma was 2.95 µM; with SNB-75 CNS, 0.396 µM and 3.72 µM; in the test with U251 CNS, 0.271 µM and 1.97 µM; in the test with UO-31 renal it was 2.27 µM and 10.6 µM.
